Measured values: ChEMBL document CHEMBL3885861, “Open TG-GATES”

Species: Rattus norvegicus
Assay: Open TG-GATES - Regimen: Daily Repeat
Assay type: toxicity, organism-based, Sprague-Dawley
Design: regimen Daily Repeat, gender Male, age 6 weeks
Conditions: in vivo, po, 10 mg/kg, route gavage, dose level Low; for APTT / Bas / Eos / Fbg / Hb / Ht / Lym / MCH / MCHC / MCV / Mono / Neu / PT / Plat / RBC / Ret / WBC: tissue Blood; for KIDNEY_L / KIDNEY_R / KIDNEY_TOTAL: tissue Kidney; for LIVER: tissue Liver; for A/G / ALP / ALT / AST / BUN / CRE / Ca / Cl / DBIL / GLC / IP / K / LDH / Na / PL / RALB / TBIL / TC / TG / TP / gamma-GTP: tissue Plasma

OCCOCCN1CCN(C(c2ccccc2)c2ccc(Cl)cc2)CC1 (configuration not stated) [HYDROXYZINE]
TERMINAL_BW (72 h, time 3 day): 228.1 g
APTT (72 h, time 3 day): 16.3 s
Bas (72 h, time 3 day): 0%
Eos (72 h, time 3 day): 1%
Fbg (72 h, time 3 day): 261.4 mg/dL
Hb (72 h, time 3 day): 13 g/dL
Ht (72 h, time 3 day): 39.4%
Lym (72 h, time 3 day): 75.6%
MCH (72 h, time 3 day): 21.8 pg
MCHC (72 h, time 3 day): 33%
MCV (72 h, time 3 day): 65.9 fL
Mono (72 h, time 3 day): 2.6%
Neu (72 h, time 3 day): 20.2%
PT (72 h, time 3 day): 16 s
Plat (72 h, time 3 day): 110.5 x10_4/uL
RBC (72 h, time 3 day): 598 x10_4/ul
Ret (72 h, time 3 day): 7.3%
WBC (72 h, time 3 day): 96.2 x10_2/uL
KIDNEY_L (72 h, time 3 day): 1 g
KIDNEY_R (72 h, time 3 day): 1 g
KIDNEY_TOTAL (72 h, time 3 day): 2 g
LIVER (72 h, time 3 day): 10.8 g
A/G (72 h, time 3 day): 0.8
ALP (72 h, time 3 day): 1662 IU/L
ALT (72 h, time 3 day): 51.2 IU/L
AST (72 h, time 3 day): 82.4 IU/L
BUN (72 h, time 3 day): 16.2 mg/dL
CRE (72 h, time 3 day): 0.2 mg/dL
Ca (72 h, time 3 day): 10.8 mg/dL
Cl (72 h, time 3 day): 105.6 meq/L
DBIL (72 h, time 3 day): 0.018 mg/dL
GLC (72 h, time 3 day): 182 mg/dL
IP (72 h, time 3 day): 7.7 mg/dL
K (72 h, time 3 day): 4 meq/L
LDH (72 h, time 3 day): 98.8 IU/L
Na (72 h, time 3 day): 142.8 meq/L
PL (72 h, time 3 day): 139 mg/dL
RALB (72 h, time 3 day): 2.6 g/dL
TBIL (72 h, time 3 day): 0.054 mg/dL
TC (72 h, time 3 day): 71.6 mg/dL
TG (72 h, time 3 day): 76 mg/dL
TP (72 h, time 3 day): 5.6 g/dL
gamma-GTP (72 h, time 3 day): 0.8 IU/L
TERMINAL_BW ([…], time 7 day): 259.3 g
TERMINAL_BW ([…], time 14 day): 323.3 g
TERMINAL_BW ([…], time 28 day): 416.4 g
APTT ([…], time 7 day): 17 s
Bas ([…], time 7 day): 0%
Eos ([…], time 7 day): 1%
Fbg ([…], time 7 day): 263 mg/dL
Hb ([…], time 7 day): 13.8 g/dL
Ht ([…], time 7 day): 41.3%
Lym ([…], time 7 day): 80.6%
MCH ([…], time 7 day): 21.5 pg
MCHC ([…], time 7 day): 33.5%
MCV ([…], time 7 day): 64.4 fL
Mono ([…], time 7 day): 1.8%
Neu ([…], time 7 day): 16.2%
PT ([…], time 7 day): 15.7 s
Plat ([…], time 7 day): 117.5 x10_4/uL
RBC ([…], time 7 day): 643 x10_4/ul
Ret ([…], time 7 day): 5.9%
WBC ([…], time 7 day): 88.4 x10_2/uL
APTT ([…], time 14 day): 18.1 s
Bas ([…], time 14 day): 0%
Eos ([…], time 14 day): 0.8%
Fbg ([…], time 14 day): 266.4 mg/dL
Hb ([…], time 14 day): 14.2 g/dL
Ht ([…], time 14 day): 41.7%
Lym ([…], time 14 day): 81.2%
MCH ([…], time 14 day): 20.7 pg
MCHC ([…], time 14 day): 34%
MCV ([…], time 14 day): 60.9 fL
Mono ([…], time 14 day): 2.4%
Neu ([…], time 14 day): 15%
PT ([…], time 14 day): 15.7 s
Plat ([…], time 14 day): 111 x10_4/uL
RBC ([…], time 14 day): 685.8 x10_4/ul
Ret ([…], time 14 day): 4.3%
WBC ([…], time 14 day): 106.7 x10_2/uL
APTT ([…], time 28 day): 18.3 s
Bas ([…], time 28 day): 0%
Eos ([…], time 28 day): 1%
Fbg ([…], time 28 day): 297.2 mg/dL
Hb ([…], time 28 day): 15.4 g/dL
Ht ([…], time 28 day): 43.7%
Lym ([…], time 28 day): 80.4%
MCH ([…], time 28 day): 20.6 pg
MCHC ([…], time 28 day): 35.2%
MCV ([…], time 28 day): 58.4 fL
Mono ([…], time 28 day): 2%
Neu ([…], time 28 day): 15%
PT ([…], time 28 day): 15.9 s
Plat ([…], time 28 day): 90.9 x10_4/uL
RBC ([…], time 28 day): 748.8 x10_4/ul
Ret ([…], time 28 day): 2.6%
WBC ([…], time 28 day): 105.9 x10_2/uL
KIDNEY_L ([…], time 7 day): 1.1 g
KIDNEY_R ([…], time 7 day): 1.1 g
KIDNEY_TOTAL ([…], time 7 day): 2.1 g
KIDNEY_L ([…], time 14 day): 1.3 g
KIDNEY_R ([…], time 14 day): 1.3 g
KIDNEY_TOTAL ([…], time 14 day): 2.7 g
KIDNEY_L ([…], time 28 day): 1.4 g
KIDNEY_R ([…], time 28 day): 1.4 g
KIDNEY_TOTAL ([…], time 28 day): 2.8 g
LIVER ([…], time 7 day): 12.6 g
LIVER ([…], time 14 day): 14.7 g
LIVER ([…], time 28 day): 16.8 g
A/G ([…], time 7 day): 0.9
ALP ([…], time 7 day): 1602.2 IU/L
ALT ([…], time 7 day): 41 IU/L
AST ([…], time 7 day): 65.8 IU/L
BUN ([…], time 7 day): 17.4 mg/dL
CRE ([…], time 7 day): 0.2 mg/dL
Ca ([…], time 7 day): 11.1 mg/dL
Cl ([…], time 7 day): 106 meq/L
DBIL ([…], time 7 day): 0.018 mg/dL
GLC ([…], time 7 day): 189 mg/dL
IP ([…], time 7 day): 7.2 mg/dL
K ([…], time 7 day): 4.3 meq/L
LDH ([…], time 7 day): 66.2 IU/L
Na ([…], time 7 day): 142.6 meq/L
PL ([…], time 7 day): 158.2 mg/dL
RALB ([…], time 7 day): 2.7 g/dL
TBIL ([…], time 7 day): 0.052 mg/dL
TC ([…], time 7 day): 72.6 mg/dL
TG ([…], time 7 day): 118.4 mg/dL
TP ([…], time 7 day): 5.9 g/dL
gamma-GTP ([…], time 7 day): 0.8 IU/L
A/G ([…], time 14 day): 0.8
ALP ([…], time 14 day): 1484.2 IU/L
ALT ([…], time 14 day): 40.8 IU/L
AST ([…], time 14 day): 67.2 IU/L
BUN ([…], time 14 day): 15.4 mg/dL
CRE ([…], time 14 day): 0.2 mg/dL
Ca ([…], time 14 day): 10.6 mg/dL
Cl ([…], time 14 day): 103.6 meq/L
DBIL ([…], time 14 day): 0.016 mg/dL
GLC ([…], time 14 day): 184.6 mg/dL
IP ([…], time 14 day): 7.3 mg/dL
K ([…], time 14 day): 4 meq/L
LDH ([…], time 14 day): 86.2 IU/L
Na ([…], time 14 day): 141.6 meq/L
PL ([…], time 14 day): 163 mg/dL
RALB ([…], time 14 day): 2.7 g/dL
TBIL ([…], time 14 day): 0.052 mg/dL
TC ([…], time 14 day): 74.8 mg/dL
TG ([…], time 14 day): 142.4 mg/dL
TP ([…], time 14 day): 6 g/dL
gamma-GTP ([…], time 14 day): 0.6 IU/L
A/G ([…], time 28 day): 0.8
ALP ([…], time 28 day): 1346.6 IU/L
ALT ([…], time 28 day): 41.4 IU/L
AST ([…], time 28 day): 69.6 IU/L
BUN ([…], time 28 day): 17.4 mg/dL
CRE ([…], time 28 day): 0.2 mg/dL
Ca ([…], time 28 day): 10.6 mg/dL
Cl ([…], time 28 day): 105 meq/L
DBIL ([…], time 28 day): 0.012 mg/dL
GLC ([…], time 28 day): 196.8 mg/dL
IP ([…], time 28 day): 6.8 mg/dL
K ([…], time 28 day): 4 meq/L
LDH ([…], time 28 day): 100.8 IU/L
Na ([…], time 28 day): 142.6 meq/L
PL ([…], time 28 day): 154.8 mg/dL
RALB ([…], time 28 day): 2.8 g/dL
TBIL ([…], time 28 day): 0.05 mg/dL
TC ([…], time 28 day): 76.8 mg/dL
TG ([…], time 28 day): 113.4 mg/dL
TP ([…], time 28 day): 6.3 g/dL
gamma-GTP ([…], time 28 day): 0.8 IU/L
